The source of these data is patent EP3831940A1, “SMALL MOLECULE INHIBITORS OF CRISPR-CAS ASSOCIATED ACTIVITY” (Danmarks Tekniske Universitet, priority 2019, dated 2021).

For the first assay, the target named is T1, spCas9:gRNA complex (Streptococcus pyogenes serotype M1, UniProt Q99ZW2).
T1 construct: purchased New England Biolabs
T1 sequence (Q99ZW2 whole entry, one chain of several): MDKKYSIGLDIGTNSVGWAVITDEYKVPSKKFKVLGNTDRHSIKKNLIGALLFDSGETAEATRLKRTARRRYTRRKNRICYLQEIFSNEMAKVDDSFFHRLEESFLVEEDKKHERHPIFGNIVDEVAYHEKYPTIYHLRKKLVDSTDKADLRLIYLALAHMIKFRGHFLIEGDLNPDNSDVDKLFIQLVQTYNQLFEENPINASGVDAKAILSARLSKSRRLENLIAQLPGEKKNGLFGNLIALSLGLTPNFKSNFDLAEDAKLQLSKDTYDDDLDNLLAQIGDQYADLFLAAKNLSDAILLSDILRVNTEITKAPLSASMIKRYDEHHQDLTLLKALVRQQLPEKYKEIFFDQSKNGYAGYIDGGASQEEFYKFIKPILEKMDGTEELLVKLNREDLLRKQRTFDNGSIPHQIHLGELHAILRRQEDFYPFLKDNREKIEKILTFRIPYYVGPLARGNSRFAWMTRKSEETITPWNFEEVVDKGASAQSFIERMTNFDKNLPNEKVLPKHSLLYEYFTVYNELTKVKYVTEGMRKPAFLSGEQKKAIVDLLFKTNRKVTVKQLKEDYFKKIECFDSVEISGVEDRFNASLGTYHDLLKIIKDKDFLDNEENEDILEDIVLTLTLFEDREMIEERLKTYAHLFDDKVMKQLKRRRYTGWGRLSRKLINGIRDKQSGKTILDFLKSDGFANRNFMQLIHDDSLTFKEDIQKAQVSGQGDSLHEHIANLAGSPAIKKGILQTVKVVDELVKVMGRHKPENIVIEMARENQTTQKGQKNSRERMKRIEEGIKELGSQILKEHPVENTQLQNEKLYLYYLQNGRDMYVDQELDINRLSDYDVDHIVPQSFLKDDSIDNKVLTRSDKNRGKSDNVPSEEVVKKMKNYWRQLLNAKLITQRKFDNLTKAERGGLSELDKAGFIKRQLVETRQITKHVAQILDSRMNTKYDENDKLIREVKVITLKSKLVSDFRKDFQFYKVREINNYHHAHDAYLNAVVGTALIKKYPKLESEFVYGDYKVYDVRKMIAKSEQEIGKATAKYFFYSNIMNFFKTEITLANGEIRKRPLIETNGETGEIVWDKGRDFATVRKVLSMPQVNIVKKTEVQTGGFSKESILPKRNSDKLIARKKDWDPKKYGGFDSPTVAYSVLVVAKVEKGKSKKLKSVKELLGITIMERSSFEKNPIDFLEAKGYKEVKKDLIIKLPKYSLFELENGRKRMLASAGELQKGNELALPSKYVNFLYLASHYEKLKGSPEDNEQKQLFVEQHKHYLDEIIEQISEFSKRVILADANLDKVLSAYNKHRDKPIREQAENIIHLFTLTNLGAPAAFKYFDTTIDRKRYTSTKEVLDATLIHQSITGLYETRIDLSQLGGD
Briefly: in vitro DNA cleavage assay (agarose gel). The class given is biochemical. Particulars: ACM37 and pyrrolylthiazole analogues, 200µM or 500µM; Figure 4. How it is done: The in vitro DNA cleavage assay was carried out as described by (Pawluk, N et al., 2016) with the following modifications. SpyCas9 (New England Biolabs) (5nM) was incubated with candidate compound (50∼500µM) for 15 min at 37°C in Cas9 nuclease buffer (New England Biolabs). Alt-R crRNA:tracrRNA (Integrated DNA Technologies) (6nM) was added later and incubated again for 15min at 37°C. Finally, target dsDNA (1nM) was added and incubated for 10 min at 37°C for the cleavage. The reaction was stopped by adding Proteinase K. The cleaved and un-cleaved fraction of target dsDNA were visualized after separation on a 1% agarose gel.
Control assays were performed in parallel, where the candidate compound was substituted with 5µM AcrIIA2, as positive control; either 5µM GFP protein or no protein (DMSO) as negative control; and phenolic Mannich base inhibitor, ZL006 (Sigma-Aldrich). The AcrIIA2 and GFP proteins were obtained from E. coli cells transformed with the AcrIIA2- and GFP-expression plasmids (see example 1.2 and 1.3).
With `Cc1cc(NS(=O)(=O)c2cc(-c3nc(C)c(C(=O)N4CCCCCC4)s3)n(C)c2C)no1` [ACM37-A10, 5-(5-(Azepane-1-carbonyl)-4-methylthiazol-2-yl)-1,2-dimethyl-N-(5-methylisoxazol-3-yl)-1H-pyrrole-3-sulfonamide], the “inhibitors of spCas9:gRNA mediated target DNA cleavage” value was “most potent inhibitors”.

For `Cc1cc(NS(=O)(=O)c2cc(-c3nc(C)c(C(=O)N4CCCCC4)s3)n(C)c2C)no1` [ACM37-A19, 1,2-Dimethyl-5-(4-methyl-5-(piperidine-1-carbonyl)thiazol-2-yl)-N-(5-methylisoxazol-3-yl)-1H-pyrrole-3-sulfonamide], the “inhibitors of spCas9:gRNA mediated target DNA cleavage” value was “most potent inhibitors”.

Take `Cc1nc(-c2cc(S(=O)(=O)Nc3ccon3)cn2C)sc1C(=O)N1CCC(C)CC1` [ACM37-A23a, N-(isoxazol-3-yl)-1-methyl-5-(4-methyl-5-(4-methylpiperidine-1-carbonyl)thiazol-2-yl)-1H-pyrrole-3-sulfonamide]: the “inhibitors of spCas9:gRNA mediated target DNA cleavage” value is reported as “most potent inhibitors”.

For `Cc1cc(NS(=O)(=O)c2cc(-c3nc(C)c(C(=O)N4CCC(C)CC4)s3)n(C)c2)no1` [ACM37-A13], the “inhibitors of spCas9:gRNA mediated target DNA cleavage” value is on record as “most potent inhibitors”.

On to `Cc1cc(NS(=O)(=O)c2cc(-c3nc(C)c(C(=O)N4CCC(C)CC4)s3)n(C)c2C)no1` [ACM37, 1,2-Dimethyl-5-(4-methyl-5-(4-methylpiperidine-1-carbonyl)thiazol-2-yl)-N-(5-methylisoxazol-3-yl)-1H-pyrrole-3-sulfonamide], for which the “inhibitors of spCas9:gRNA mediated target DNA cleavage” value is listed as “most potent inhibitors”.

Still in this assay, the particulars now being: Figure 5; printed order: ACM37-A17c, then ACM37-A17, ACM37-A17p, ACM37-A17a, ACM37-A17n, ACM37-A17f.
On to `CC1CCN(C(=O)c2cccc(-c3ccccc3)c2)CC1` [ACM37-A17c, [1,1'-Biphenyl]-3-yl(4-methylpiperidin-1-yl)methanone], for which the “relative potency as inhibitor of spCas9:gRNA mediated target DNA cleavage” value is listed as “most potent”.

Still in this assay, the particulars now being: biphenyl analogues, 80µM or 200µM; Figure 5.
Consider `CC1CCN(C(=O)c2cccc(-c3ccc(S(=O)(=O)Nc4ccon4)cc3)c2)CC1` [ACM37-A17a, N-(Isoxazol-3-yl)-3'-(4-methylpiperidine-1-carbonyl)-[1,1'-biphenyl]-4-sulfonamide], for which the “inhibitors of spCas9:gRNA mediated target DNA cleavage” value is “inhibitors”.

Turning to `Cc1cc(NS(=O)(=O)c2ccc(-c3ccccc3)cc2)no1` [ACM37-A17f, N-(5-Methylisoxazol-3-yl)-[1,1'-biphenyl]-4-sulfonamide], the “inhibitors of spCas9:gRNA mediated target DNA cleavage” value was “inhibitors”.

Take `Cc1cc(NS(=O)(=O)c2ccc(-c3cccc(C(=O)N4CCC(C)CC4)c3)cc2)no1` [ACM37-A17, N-(5-Methylisoxazol-3-yl)-3'-(4-methylpiperidine-1-carbonyl)-[1,1'-biphenyl]-4-sulfonamide]: the “inhibitors of spCas9:gRNA mediated target DNA cleavage” value was “inhibitors”.

As for `O=S(=O)(Nc1ccon1)c1ccc(-c2ccccc2)cc1` [ACM37-A17n, N-(Isoxazol-3-yl)-[1,1'-biphenyl]-4-sulfonamide], the “inhibitors of spCas9:gRNA mediated target DNA cleavage” value is reported as “inhibitors”.

In the case of `Cc1cc(NS(=O)(=O)c2cccc(-c3ccccc3)c2)no1` [ACM37-A17p, N-(5-Methylisoxazol-3-yl)-[1,1'-biphenyl]-3-sulfonamide], the “inhibitors of spCas9:gRNA mediated target DNA cleavage” value is “inhibitors”.

Take `CC1CCN(C(=O)c2cccc(-c3ccccc3)c2)CC1` [ACM37-A17c, [1,1'-Biphenyl]-3-yl(4-methylpiperidin-1-yl)methanone]: the “inhibitors of spCas9:gRNA mediated target DNA cleavage” value is reported as “inhibitors”.

Staying with this assay, now noted: re-screen of the 52 candidate compounds, 50∼500µM; Figure 3.
Regarding `Cc1cc(NS(=O)(=O)c2cc(-c3nc(C)c(C(=O)N4CCC(C)CC4)s3)n(C)c2C)no1` [ACM37, 1,2-Dimethyl-5-(4-methyl-5-(4-methylpiperidine-1-carbonyl)thiazol-2-yl)-N-(5-methylisoxazol-3-yl)-1H-pyrrole-3-sulfonamide], the “inhibitor of cleavage of a target DNA molecule by the spCas9:gRNA complex” value was “most potent and specific inhibitor”.
